Data: US20230365541A1, “INHIBITOR OF ENHANCER OF ZESTE HOMOLOGUE 2, AND USE THEREOF” (HAISCO PHARMACEUTICALS PTE. LTD., priority 2020, published 2023)

Molecular target: EZH2 (Homo sapiens (Human), UniProt Q15910)
Test: Test method for EZH2 enzyme activity
Type: biochemical
Settings: H3K27(21-44) and [3H]-SAM
Method: The compounds were dissolved in DMSO, formulated into 10 mM solutions and serially diluted with DMSO to obtain 100-fold the final concentration. 200 nL of the solutions of the compounds was transferred to a 384-well plate (Perkin Elmer, Cat. No. 6007299) by using Echo550. EZH2 (BPS, Cat. No. 51004) was diluted with 1×assay buffer (50 mM Tris-HCl 9.0, 0.01% Tween-20, 1 mM DTT) to 2-fold the final concentration (EZH2: 3 nM). A mixed solution of H3K27(21-44) and [3H]-SAM (PerkinElmer, Lot. No. 2146246) (H3K27(21-44): 200 nM, [3H]-SAM: 100 nM) was formulated. The EZH2 diluted solution was taken and added to the 384-well plate at 10 μL/well (10 μL of 1×assay buffer was added in the control group). The plate was sealed and then incubated at room temperature for 15 minutes. 10 μL of the mixed solution of H3K27 (21-44) and [3H]-SAM was added to each well. The plate was sealed and then incubated at room temperature for 60 minutes. 50 μM of SAM (Sigma, Cat. No. A7007) was formulated at low temperature and added to the 384-well plate at 10 μL/well. The sample was taken at 25 μL/well, transferred to a flashplate and incubated at room temperature for at least 1 hour. The flashplate was washed 3 times with a plate washing liquid (dH2O+0.1% Tween-20) and read by using Microbeta. The inhibition rate was calculated in Excel according to: inhibition rate (%)=(maximum valuepositive control−detection signal value)/(maximum valuepositive control−minimum valuenegative control)*100, and IC50 values were fitted by using XL-Fit.

Chain of EZH2 (Q15910 other isoform, or with tags, fused parts or gaps isoform Q15910-2): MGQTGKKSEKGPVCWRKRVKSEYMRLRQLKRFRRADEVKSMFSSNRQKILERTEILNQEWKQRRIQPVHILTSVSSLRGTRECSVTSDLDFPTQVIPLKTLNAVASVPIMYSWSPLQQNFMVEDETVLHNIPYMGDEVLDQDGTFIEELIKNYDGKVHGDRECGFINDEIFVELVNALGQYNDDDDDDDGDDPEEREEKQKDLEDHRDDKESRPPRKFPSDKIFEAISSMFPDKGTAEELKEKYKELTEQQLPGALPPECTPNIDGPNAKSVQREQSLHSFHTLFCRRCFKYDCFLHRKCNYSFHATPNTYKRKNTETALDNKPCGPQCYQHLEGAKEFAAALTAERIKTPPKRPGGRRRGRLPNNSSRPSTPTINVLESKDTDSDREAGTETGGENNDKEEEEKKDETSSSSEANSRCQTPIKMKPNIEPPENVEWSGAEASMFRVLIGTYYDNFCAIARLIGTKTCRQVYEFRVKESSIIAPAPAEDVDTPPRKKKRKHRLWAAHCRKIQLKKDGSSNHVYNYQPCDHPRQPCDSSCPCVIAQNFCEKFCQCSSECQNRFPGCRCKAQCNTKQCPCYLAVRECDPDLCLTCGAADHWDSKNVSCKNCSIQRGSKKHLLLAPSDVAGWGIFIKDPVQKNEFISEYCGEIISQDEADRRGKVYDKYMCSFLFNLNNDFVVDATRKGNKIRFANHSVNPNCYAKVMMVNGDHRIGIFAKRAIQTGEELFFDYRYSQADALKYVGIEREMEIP
Chain of EZH2 (O75530 2-441 partner): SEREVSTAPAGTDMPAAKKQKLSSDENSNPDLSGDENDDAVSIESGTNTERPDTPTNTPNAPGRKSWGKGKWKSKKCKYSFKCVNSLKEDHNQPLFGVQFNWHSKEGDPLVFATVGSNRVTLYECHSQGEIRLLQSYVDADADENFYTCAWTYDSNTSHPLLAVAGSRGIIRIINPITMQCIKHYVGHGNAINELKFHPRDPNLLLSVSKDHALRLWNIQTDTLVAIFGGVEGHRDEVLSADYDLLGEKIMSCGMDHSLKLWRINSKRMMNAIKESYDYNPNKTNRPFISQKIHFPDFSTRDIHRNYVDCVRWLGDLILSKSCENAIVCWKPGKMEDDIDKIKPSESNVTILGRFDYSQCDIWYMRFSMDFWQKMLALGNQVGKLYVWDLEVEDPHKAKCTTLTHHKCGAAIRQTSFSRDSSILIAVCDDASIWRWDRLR
Chain of EZH2 (Q15022 2-739 partner): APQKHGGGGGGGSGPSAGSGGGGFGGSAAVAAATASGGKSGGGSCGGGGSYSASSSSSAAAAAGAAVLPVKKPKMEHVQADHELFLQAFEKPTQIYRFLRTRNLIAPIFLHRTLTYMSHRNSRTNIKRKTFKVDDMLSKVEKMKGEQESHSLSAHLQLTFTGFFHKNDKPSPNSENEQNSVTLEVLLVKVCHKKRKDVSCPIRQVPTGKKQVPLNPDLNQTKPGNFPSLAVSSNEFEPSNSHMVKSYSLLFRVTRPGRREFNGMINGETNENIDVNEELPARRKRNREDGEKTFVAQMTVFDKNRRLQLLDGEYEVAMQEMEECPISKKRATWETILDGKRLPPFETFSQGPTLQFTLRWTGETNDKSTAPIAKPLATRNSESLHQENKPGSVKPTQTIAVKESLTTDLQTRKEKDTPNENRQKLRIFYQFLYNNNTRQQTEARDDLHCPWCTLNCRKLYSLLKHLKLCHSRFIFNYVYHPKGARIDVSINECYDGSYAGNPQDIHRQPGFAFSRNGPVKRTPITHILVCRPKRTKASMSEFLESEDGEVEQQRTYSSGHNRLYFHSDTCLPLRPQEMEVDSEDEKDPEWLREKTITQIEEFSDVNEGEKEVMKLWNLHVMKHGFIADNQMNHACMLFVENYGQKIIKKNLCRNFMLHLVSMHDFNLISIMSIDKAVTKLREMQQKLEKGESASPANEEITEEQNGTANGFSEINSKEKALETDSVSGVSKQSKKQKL
Chain of EZH2 (Q09028 2-425 partner): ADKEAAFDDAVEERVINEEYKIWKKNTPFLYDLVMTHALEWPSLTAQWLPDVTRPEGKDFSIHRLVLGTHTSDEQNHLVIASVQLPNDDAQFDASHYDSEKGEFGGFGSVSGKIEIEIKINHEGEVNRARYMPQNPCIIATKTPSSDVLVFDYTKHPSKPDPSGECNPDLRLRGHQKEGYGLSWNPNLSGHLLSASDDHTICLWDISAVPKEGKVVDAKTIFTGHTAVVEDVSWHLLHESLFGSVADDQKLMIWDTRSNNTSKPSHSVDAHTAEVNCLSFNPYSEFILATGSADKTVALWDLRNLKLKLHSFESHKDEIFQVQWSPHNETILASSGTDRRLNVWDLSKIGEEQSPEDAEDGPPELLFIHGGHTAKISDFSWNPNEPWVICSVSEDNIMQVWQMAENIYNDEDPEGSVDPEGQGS
Chain of EZH2 (Q6ZN18 whole entry partner): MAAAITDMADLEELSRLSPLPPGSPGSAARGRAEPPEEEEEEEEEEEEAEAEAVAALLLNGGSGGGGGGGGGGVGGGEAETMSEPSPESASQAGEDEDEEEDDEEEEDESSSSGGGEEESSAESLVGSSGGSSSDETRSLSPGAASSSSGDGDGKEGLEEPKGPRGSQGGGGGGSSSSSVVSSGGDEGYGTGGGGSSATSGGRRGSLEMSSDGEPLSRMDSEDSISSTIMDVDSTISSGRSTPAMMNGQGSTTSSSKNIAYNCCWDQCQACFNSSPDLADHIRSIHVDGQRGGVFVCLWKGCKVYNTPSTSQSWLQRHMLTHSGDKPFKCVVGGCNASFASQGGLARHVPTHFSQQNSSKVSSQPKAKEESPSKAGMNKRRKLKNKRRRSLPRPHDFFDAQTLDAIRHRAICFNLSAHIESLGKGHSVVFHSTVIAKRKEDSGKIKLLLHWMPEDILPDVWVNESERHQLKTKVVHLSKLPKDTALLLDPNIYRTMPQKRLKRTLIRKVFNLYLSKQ

Compound	IC50
CSc1cc(C)[nH]c(=O)c1CNC(=O)c1cc(Cl)c2c(c1C)OC(C)([C@H]1CC[C@@H](N3CC(N4CCCC4)C3)CC1)O2 (single isomer, unassigned) [Compound 43, isomer 2, 7-chloro-2,4-dimethyl-N-((6-methyl-4-(methylthio)-2-oxo-1,2-dihydropyridin-3-yl)methyl)-2-(4-(3-(pyrrolidin-1-yl)azetidin-1-yl)cyclohexyl)benzo[d][1,3]dioxole-5-carboxamide]	0.42 nM
CSc1cc(C)[nH]c(=O)c1CNC(=O)c1cc(Cl)c2c(c1C)OC(C)([C@H]1CC[C@@H](NC(=O)C3CC(F)(F)C3)CC1)O2 (single isomer, unassigned) [Compound 6, isomer 1, 7-chloro-2-(4-(3,3-difluorocyclobutane-1-carboxamido)cyclohexyl)-2,4-dimethyl-N-((6-methyl-4-(methylthio)-2-oxo-1,2-dihydropyridin-3-yl)methyl)benzo[d][1,3]dioxole-5-carboxamide]	0.52 nM
CSc1cc(C)[nH]c(=O)c1CNC(=O)c1cc(Cl)c2c(c1C)OC(C)(C1CCN(C(=O)C3CC(F)(F)C3)CC1)O2 (single isomer, unassigned; isomer 2) [Compound 11, isomer 2, 7-chloro-2-(1-(3,3-difluorocyclobutane-1-carbonyl)piperidin-4-yl)-2,4-dimethyl-N-((6-methyl-4-(methylthio)-2-oxo-1,2-dihydropyridin-3-yl)methyl)benzo[d][1,3]dioxole-5-carboxamide]	0.88 nM
CSc1cc(C)[nH]c(=O)c1CNC(=O)c1cc(Cl)c2c(c1C)OC(C)(C1CCC(N[C@H]3C[C@H](O)C3)CC1)O2 (single isomer, unassigned) [Compound 45, isomer 2, 7-chloro-2-(4-((trans-3-hydroxycyclobutyl)amino)cyclohexyl)-2,4-dimethyl-N-((6-methyl-4-(methylthio)-2-oxo-1,2-dihydropyridin-3-yl)methyl)benzo[d][1,3]dioxole-5-carboxamide]	0.35 nM
CO[C@H]1C[C@H](NC2CCC(C3(C)Oc4c(Cl)cc(C(=O)NCc5c(SC)cc(C)[nH]c5=O)c(C)c4O3)CC2)C1 (single isomer, unassigned) [Compound 9, isomer 1, 7-chloro-2-(4-((trans-3-methoxycyclobutyl)amino)cyclohexyl)-2,4-dimethyl-N-((6-methyl-4-(methylthio)-2-oxo-1,2-dihydropyridin-3-yl)methyl)benzo[d][1,3]dioxole-5-carboxamide]	0.81 nM
CSc1cc(C)[nH]c(=O)c1CNC(=O)c1cc(Cl)c2c(c1C)OC(C)([C@H]1CC[C@@H](NC(=O)C3CC(F)(F)C3)CC1)O2 (single isomer, unassigned) [Compound 6, isomer 2, 7-chloro-2-(4-(3,3-difluorocyclobutane-1-carboxamido)cyclohexyl)-2,4-dimethyl-N-((6-methyl-4-(methylthio)-2-oxo-1,2-dihydropyridin-3-yl)methyl)benzo[d][1,3]dioxole-5-carboxamide]	0.64 nM
COC1CC(N2CCC(C3(C)Oc4c(Cl)cc(C(=O)NCc5c(SC)cc(C)[nH]c5=O)c(C)c4O3)CC2)C1 (centres unmarked) [Compound 33, 7-chloro-2-(1-(3-methoxycyclobutyl)piperidin-4-yl)-2,4-dimethyl-N-((6-methyl-4-(methylthio)-2-oxo-1,2-dihydropyridin-3-yl)methyl)benzo[d][1,3]dioxole-5-carboxamide]	0.57 nM
CSc1cc(C)[nH]c(=O)c1CNC(=O)c1cc(Cl)c2c(c1C)OC(C)([C@H]1CC[C@H](CNC3CC(F)(F)C3)CC1)O2 (single isomer, unassigned) [Compound 40, isomer 2, 7-chloro-2-(4-(((3,3-difluorocyclobutyl)amino)methyl)cyclohexyl)-2,4-dimethyl-N-((6-methyl-4-(methylthio)-2-oxo-1,2-dihydropyridin-3-yl)methyl)benzo[d][1,3]dioxole-5-carboxamide]	0.51 nM
